# Results published in patent publication US8822467B2 (Ligand Pharmaceuticals Inc., priority 2009, dated 2014).
# Biological target: T1, human CRTH2 (Homo sapiens, UniProt Q9Y5Y4)
# T1 construct: expressed in transfected cells
# T1 sequence (Q9Y5Y4 1-395): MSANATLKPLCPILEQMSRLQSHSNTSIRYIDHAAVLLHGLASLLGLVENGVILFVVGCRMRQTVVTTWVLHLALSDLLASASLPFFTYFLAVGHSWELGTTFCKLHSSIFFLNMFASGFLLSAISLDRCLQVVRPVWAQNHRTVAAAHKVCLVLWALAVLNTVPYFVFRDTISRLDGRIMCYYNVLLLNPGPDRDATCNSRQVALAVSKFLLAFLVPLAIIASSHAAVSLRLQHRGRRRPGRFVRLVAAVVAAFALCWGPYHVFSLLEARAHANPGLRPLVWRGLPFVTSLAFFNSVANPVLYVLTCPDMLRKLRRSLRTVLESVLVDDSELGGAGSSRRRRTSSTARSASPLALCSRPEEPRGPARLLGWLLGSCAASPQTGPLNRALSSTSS
# Experiment: [35S]GTPγS binding assay (SPA) on membranes from CHO-K1 cells stably expressing human CRTH2, stimulated with 60 nM DHK-PGD2
# Type: biochemical
# Settings: potency class symbols; Table 2; read-out: CRTH2 hGTPγS IC50
# Procedure, shortened: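 Membranes (4 μg) from CHO-K1 cells stably expressing human CRTH2 were incubated with compounds, 60 nM DHK-PGD2, 500 pM [35S]GTPγS and 10 μM GDP plus WGA SPA beads. Buffer was 20 mM HEPES pH 7.4, 10 mM MgCl2, 300 mM NaCl, 0.2% BSA, with 1% DMSO. Incubation ran 2 h at ambient temperature, with SPA scintillation read 4 h after centrifugation.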
row,IC50 [µM],SMILES
1,0.1 to 1,"CN(Cc1ccc(OCC(=O)O)c(-c2cccc(F)c2F)c1)S(=O)(=O)c1ccc(F)cc1 [Example 122, 2-(2,3-difluorophenyl)-4-((4-fluoro-N-methylphenylsulfonamido)methyl)phenoxyacetic acid]"
2,0.1 to 1,"CN(C)C(=O)c1cccc(-c2cc(CN(C)S(=O)(=O)c3ccc(F)cc3)ccc2OCC(=O)O)c1 [Example 138, 2-(3-dimethylaminocarbonylphenyl)-4-((4-fluoro-N-methylphenylsulfonamido)methyl)phenoxyacetic acid]"
3,0.1 to 1,"COCc1cccc(-c2cc(CN(C)S(=O)(=O)c3ccc(F)cc3)ccc2OCC(=O)O)c1 [Example 114, 2-(3-methoxymethylphenyl)-4-((4-fluoro-N-methylphenylsulfonamido)methyl)phenoxyacetic acid]"
4,1 to 10,"CN(Cc1ccc(OCC(=O)O)c(-c2cc(F)ccc2F)c1)S(=O)(=O)c1ccccc1 [Example 166, 2-(2,5-difluorophenyl)-4-((N-methylphenylsulfonamido)methyl)phenoxyacetic acid]"
5,0.1 to 1,"CN(Cc1ccc(OCC(=O)O)c(-c2cc(C(F)(F)F)ccc2Cl)c1)S(=O)(=O)c1ccc(F)cc1 [Example 115, 2-(2-chloro-5-trifluoromethylphenyl)-4-((4-fluoro-N-methylphenylsulfonamido)methyl)phenoxyacetic acid]"
6,< 0.1,"CN(Cc1cc(-c2cc(F)cc(C#N)c2)c(OCC(=O)O)cc1F)S(=O)(=O)c1ccc(F)cc1 [Example 208, 2-(3-cyano-5-fluoro-phenyl)-4-((4-fluoro-N-methylphenylsulfonamido)methyl)-5-fluorophenoxyacetic acid]"
7,< 0.1,"CN(Cc1cc(-c2cc(F)cc(C#N)c2)c(OCC(=O)O)cc1Cl)S(=O)(=O)c1ccc(F)cc1 [Example 213, 2-(3-cyano-5-fluoro-phenyl)-4-((4-fluoro-N-methylphenylsulfonamido)methyl)-5-chlorophenoxyacetic acid]"
8,1 to 10,"CN(Cc1ccc(OCC(=O)O)c(-c2cc(C(F)(F)F)ccn2)c1)S(=O)(=O)c1ccc(F)cc1 [Example 168, 2-(4-trifluoromethylpyridinyl)-4-((4-fluoro-N-methylphenylsulfonamido)methyl)phenoxyacetic acid]"
9,1 to 10,"CN(Cc1ccc(OCC(=O)O)c(-c2cccc3cnccc23)c1)S(=O)(=O)c1ccc(F)cc1 [Example 185, 2-(isoquinolin-5-yl)-4-((4-fluoro-N-methylphenylsulfonamido)methyl)phenoxyacetic acid]"
10,0.1 to 1,"CN(Cc1ccc(OCC(=O)O)c(-c2cc(F)ccc2F)c1)S(=O)(=O)c1ccc(F)cc1 [Example 118, 2-(2,5-difluorophenyl)-4-((4-fluoro-N-methylphenylsulfonamido)methyl)phenoxyacetic acid]"
11,1 to 10,"CN(Cc1ccc(OCC(=O)O)c(-c2ccc3cc[nH]c3c2)c1)S(=O)(=O)c1ccc(F)cc1 [Example 183, 2-(1H-indol-6-yl)-4-((4-fluoro-N-methylphenylsulfonamido)methyl)phenoxyacetic acid]"
12,1 to 10,"CN(Cc1ccc(OCC(=O)O)c(-c2ccc3ncn(C)c3c2)c1)S(=O)(=O)c1ccc(F)cc1 [Example 184, 2-(3-methyl-3H-benzo[d]imidazol-5-yl)-4-((4-fluoro-N-methylphenylsulfonamido)methyl)phenoxyacetic acid]"
13,< 0.1,"CN(Cc1cc(-c2cc(F)cc(C#N)c2)c(OCC(=O)O)cc1F)S(=O)(=O)c1ccc(F)c(Cl)c1 [Example 209, 2-(3-cyano-5-fluoro-phenyl)-4-((3-chloro-4-fluoro-N-methylphenylsulfonamido)methyl)-5-fluorophenoxyacetic acid]"
14,1 to 10,"CN(Cc1ccc(OCC(=O)O)c(-c2cnn(C)c2)c1)S(=O)(=O)c1ccc(F)cc1 [Example 186, 2-(1-methyl-1H-pyrazol-4-yl)-4-((4-fluoro-N-methylphenylsulfonamido)methyl)phenoxyacetic acid]"
15,0.1 to 1,"CNC(=O)c1cccc(-c2cc(CN(C)S(=O)(=O)c3ccc(F)cc3)ccc2OCC(=O)O)c1 [Example 135, 2-(3-N-methylaminocarbonylphenyl)-4-((4-fluoro-N-methylphenylsulfonamido)methyl)phenoxyacetic acid]"
16,1 to 10,"CN(Cc1ccc(OCC(=O)O)c(-c2ccc(Cl)cc2)c1)S(=O)(=O)c1ccc(F)cc1 [Example 165, 2-(4-chlorophenyl)-4-((4-fluoro-N-methylphenylsulfonamido)methyl)phenoxyacetic acid]"
17,< 0.1,"COc1ccc(S(=O)(=O)N(C)Cc2ccc(OCC(=O)O)c(-c3cc(F)cc(F)c3)c2)cc1F [Example 189, 2-(3,5-difluorophenyl)-4-((3-fluoro-4-methoxy-N-methylphenylsulfonamido)methyl)phenoxyacetic acid]"
18,< 0.1,"N#Cc1cc(F)cc(-c2cc(CNS(=O)(=O)c3ccc(F)cc3)ccc2OCC(=O)O)c1 [Example 195, 2-(3-cyano-5-fluorophenyl)-4-((4-fluorophenylsulfonamido)methyl)phenoxyacetic acid]"
19,1 to 10,"CN(Cc1ccc(OCC(=O)O)c(-c2cccc(C(=O)N3CCOCC3)c2)c1)S(=O)(=O)c1ccc(F)cc1 [Example 175, 2-(3-morpholinocarbonylphenyl)-4-((4-fluoro-N-methylphenylsulfonamido)methyl)phenoxyacetic acid]"

# More lines, now with the values behind:
row,SMILES,IC50 [µM]
1,"CN(Cc1ccc(OCC(=O)O)c(-c2cccc(C(N)=O)c2)c1)S(=O)(=O)c1ccc(F)cc1 [Example 105, 2-(3-aminocarbonylphenyl)-4-((4-fluoro-N-methylphenylsulfonamido)methyl)phenoxyacetic acid]",0.1 to 1
2,"CN(Cc1ccc(OCC(=O)O)c(-c2cc(F)cc(F)c2)c1)S(=O)(=O)c1ccc(F)cc1 [Example 106, 2-(3,5-difluorophenyl)-4-((4-fluoro-N-methylphenylsulfonamido)methyl)phenoxyacetic acid]",0.1 to 1
3,"Cc1ccc(S(=O)(=O)N(C)Cc2ccc(OCC(=O)O)c(-c3cccc(S(C)(=O)=O)c3)c2)cc1 [Example 59, 2-(3-methylsulfonylphenyl)-4-((4-methyl-N-methylphenylsulfonamido)methyl)phenoxyacetic acid]",< 0.1
4,"CNS(=O)(=O)c1cccc(-c2cc(CN(C)S(=O)(=O)c3ccc(F)c(F)c3)ccc2OCC(=O)O)c1 [Example 50, 2-(3-N-methylsulfamoylphenyl)-4-((3,4-difluoro-N-methylphenylsulfonamido)methyl)phenoxyacetic acid]",< 0.1
5,"CN(Cc1ccc(OC(C)(C)C(=O)O)c(-c2cccc(C(F)(F)F)c2)c1)S(=O)(=O)c1ccc(F)cc1 [Example 34, 2-(2-(3-trifluoromethylphenyl)-4-((4-fluoro-N-methylphenylsulfonamido)methyl)phenoxy)-2-methylpropanoic acid]",1 to 10
6,"Cc1ccc(-c2cc(CN(C)S(=O)(=O)c3ccc(F)cc3)ccc2OCC(=O)O)cc1S(C)(=O)=O [Example 84, 2-(3-methylsulfonyl-4-methyl-phenyl)-4-((4-fluoro-N-methylphenylsulfonamido)methyl)phenoxyacetic acid]",< 0.1
7,"CS(=O)(=O)c1cccc(-c2cc(CNS(=O)(=O)c3ccc(F)cc3)ccc2OCC(=O)O)c1 [Example 81, 2-(3-methylsulfonylphenyl)-4-((4-fluorophenylsulfonamido)methyl)phenoxyacetic acid]",< 0.1
8,"CN(Cc1ccc(OCC(=O)O)c(-c2cccc(S(C)(=O)=O)c2)c1)S(=O)(=O)c1ccccc1 [Example 78, 2-(3-methylsulfonylphenyl)-4-((N-methylphenylsulfonamido)methyl)phenoxyacetic acid]",< 0.1
9,"COc1cc(S(=O)(=O)N(C)Cc2ccc(OCC(=O)O)c(-c3cccc(C#N)c3)c2)ccc1F [Example 103, 2-(3-cyanophenyl)-4-((3-methoxy-4-fluoro-N-methylphenylsulfonamido)methyl)phenoxyacetic acid]",0.1 to 1
10,"CNS(=O)(=O)c1cccc(-c2cc(CN(C)S(=O)(=O)c3ccc(F)cc3)ccc2OCC(=O)O)c1 [Example 54, 2-(3-N-methylsulfamoylphenyl)-4-((4-fluoro-N-methylphenylsulfonamido)methyl)phenoxyacetic acid]",< 0.1
11,"CN(Cc1ccc(OCC(=O)O)c(-c2cccc(C#N)c2)c1)S(=O)(=O)c1cccc(C(F)(F)F)c1 [Example 102, 2-(3-cyanophenyl)-4-((3-trifluoromethyl-N-methylphenylsulfonamido)methyl)phenoxyacetic acid]",0.1 to 1
12,"CN(Cc1ccc(OCC(=O)O)c(-c2cccc(S(C)(=O)=O)c2)c1)S(=O)(=O)c1ccc(C#N)cc1 [Example 86, 2-(3-methylsulfonylphenyl)-4-((4-cyano-N-methylphenylsulfonamido)methyl)phenoxyacetic acid]",< 0.1
13,"CN(Cc1ccc(OCC(=O)O)c(-c2cccc(C(F)(F)F)c2)c1)S(=O)(=O)c1ccc(F)c(F)c1 [Example 91, 2-(3-trifluoromethylphenyl)-4-((3,4-difluoro-N-methylphenylsulfonamido)methyl)phenoxyacetic acid]",< 0.1
